In patent US12215118B2, “Quinone methide analog signal amplification” (Ventana Medical Systems, Inc., priority 2014, dated 2025):
Blank lines part the entries; values can stand above or below the compound they belong to.

Legend:
[1] = Accelerated stability study in Buffer A (50/50 DMSO and 10 mM glycine buffer pH 2.0); format: physicochemical; settings: 20-25 °C
Description: With an understanding of the degradation pathways and characteristics, a solvent system was designed for the purpose of extending shelf-life of QMP compounds. […] At elevated temperature the degradation pathway described in FIG. 3C was still observed. However, at normal storage conditions (2-25° C.) the rate of decomposition of the QMP is reduced compared to 100% aqueous systems.

[2] = tested on: Bcl2 on FFPE tonsil tissue; assay: HRP DAB amplified by QMP-biotin with different linkers; settings: 100 nM, CHES pH 10.0, different linkers
Description: The tissue was deparaffinized and retrieved as described in the general procedures. Mouse-anti-Bcl-2 antibody incubation (37° C., 16 minutes) and washing were followed by secondary antibody incubation with a goat polyclonal anti-mouse antibody conjugated to AP (37° C.; 12 minutes). After incubating with the AP conjugate the slides were washed with Special Stains wash. Monofluoro QMP-biotin (with aniline amide (FIG. 23(A)), benzoic amide (FIG. 23(B)) or tyramide amide linker (FIG. 23(C)) (100 nM) was dissolved in 100 mM CHES, pH 10.0, 0.05% Brij-35 to a final concentration of 100 nM. QMP turnover was achieved by adding 100 μL of AP Enhancer followed by 100 μL of biotin labeled QMP and incubating at 37° C. for 16 minutes. The deposited biotin was subsequently bound by a streptavidin-HRP conjugate (37° C.; 8 minutes), and visualized via a brown precipitate produced by HRP upon the addition of hydrogen peroxide and DAB (37° C.; 8 minutes). The DAB was toned by the addition of copper sulfate (37° C.; 4 minutes). The stained tissue sections were counterstained with modified Mayer's hematoxylin (37° C.; 4 minutes) and then incubated with Bluing Reagent (37° C.; 4 minutes). They were then dehydrated through a graded ethanol series, cleared with xylene, and manually cover-slipped.

[3] = tested on: BCL6 on FFPE tonsil tissue; assay: AP-based CARD IHC with biotinylated QM precursor followed by DAB detection
Description: Detection 1—HRP DAB. After incubating with the AP conjugate the slides were washed with Special Stains wash (VMSI #860-015). QMP reagents were dissolved in 100 mM CHES (3-cyclo-hexylamino-ethylsulfonic acid), pH 10.0, 0.05% Brij-35. QMP turnover was achieved by adding 100 μL of AP Enhancer (VMSI #253-2182) followed by 100 μL of hapten labeled QMP and incubating at 37° C. for 16 minutes. Compound 29 is an exemplary hapten-QMP that could be used according to this method. The deposited hapten was subsequently bound by a mouse-anti-hapten-HRP conjugate (or streptavidin-HRP) (37° C.; 8 minutes), and visualized via a brown precipitate produced by HRP upon the addition of hydrogen peroxide and DAB (37° C.; 8 minutes). The DAB was toned by the addition of copper sulfate (37° C.; 4 minutes). The stained tissue sections were counterstained with modified Mayer's hematoxylin (Hematoxylin II, VMSI #790-2208) (37° C.; 4 minutes) and then incubated with Bluing Reagent (VMSI #760-2037) (37° C.; 4 minutes). The slides were then dehydrated through a graded ethanol series, cleared with xylene, and manually cover-slipped.
Both compounds utilize fluoride as the leaving group, but the reactivity of the QM derived from difluoro compound 58 should be considerably lower than monofluoro 7 due to the electronic stabilization offered by the geminal fluorine atom. […] Therefore, the difluoro QM precursor compound 58 was evaluated first for IHC staining performance on FFPE tissue using the nuclear marker BCL6 on FFPE tonsil tissue as a model system. The biotin-labeled difluoro QM precursor successfully bound to the sample as evidenced by subsequent biotin visualization using diaminobenzidine (DAB) detection. FIG. 18 provides microphotographs illustrating the detection level at varying concentrations of the difluoro QM precursor in a Tris buffer at pH=8.5 (panel A—DAB control, panel B—1 μM, panel C—10 μM and panel D—20 μM). In addition, significant amplification of signal was observed compared to the DAB control sample when on-slide concentrations of difluoro QM precursor compound 58 greater than […] were utilized.
To test the effect of pH on signal diffusion, difluoro QM precursor compound 58 was deposited as before at various pH levels within the working range for AP (7-12 with two shoulders of maximal activity at pH=8.5 and 11). The nuclear marker BCL6 on FFPE tonsil tissue was again chosen as the model. Positive staining was observed across the entire pH range, although a balance between overall signal and diffusion was seen. FIG. 19, panels A-H provide microphotographs of the detection levels of 20 µM QM precursor in Tris buffer with varying pH: panel A—DAB control; panel B pH=7.0; panel C pH=8.0; panel D pH=8.5; panel E pH=9.0; panel F pH=10.0; panel G pH=11.0; panel H pH=12.0. The diffusion appears to decrease with increasing pH. […] The level of amplification increased only as the pH rose to 8.5 and then decreased gradually over the rest of the range. This effect may be due to a combination of enzyme activity and the population of QM quenchers in the reaction media. At pH levels well below the optimal AP reaction conditions (7.0), the activity of AP was depressed, resulting in low signal. As the pH increased (8.0-8.5) but remained near the pKa of Tris (8.1), the activity of AP increased at a faster rate than the population of quenchers in the reaction media, leading to a significant increase in signal. Raising the pH further (9-10) increased the quencher population while decreasing AP activity, resulting in a decrease of signal. Although AP had maximal activity at pH 11 in Tris, a slight decrease in staining intensity was observed, most likely due to the excessively high population of quenchers that could not be overcome by the increased AP activity (raising the pH from 8.5 to 11 increases [Tris base] about 50%, with AP activity increasing by only about 20%). […]

[4] = tested on: Ki67 on FFPE tonsil tissue; assay: HRP DAB amplified by QMP-biotin with various leaving groups; settings: CHES pH 10.0, ultraView DAB control; for staining intensity and signal diffusion compared to the control slide: quaternary amine leaving groups, 100 μM; for signal resolution and intensity compared to the control slide: monofluoro 400 nM, acetate and methoxy 100 μM
Description: (b) Quinone methide analog precursor amplified DAB (FIGS. 21(B)-(D)). The tissue was deparaffinized and retrieved as described in the general procedures. Rabbit-anti-Ki-67 antibody incubation (37° C., 16 minutes) and washing were followed by secondary antibody incubation with a goat polyclonal anti-rabbit antibody conjugated to AP (37° C.; 12 minutes). After incubating with the AP conjugate the slides were washed with Special Stains wash. Pyridine QMP-biotin (100 μM) (FIG. 21(B)) or DABCO QMP-biotin (100 μM) (FIG. 21(C)) or triethylamine QMP-biotin (100 μM) (FIG. 21(D)) was dissolved in 100 mM CHES, pH 10.0, 0.05% Brij-35 to a final concentration of 100 nM. QMP turnover was achieved by adding 100 μL of AP Enhancer followed by 100 μL of biotin labeled QMP and incubating at 37° C. for 16 minutes. The deposited hapten was subsequently bound by streptavidin-HRP conjugate (37° C.; 8 minutes), and visualized via a brown precipitate produced by HRP upon the addition of hydrogen peroxide and DAB (37° C.; 8 minutes). The DAB was toned by the addition of copper sulfate (37° C.; 4 minutes). The stained tissue sections were counterstained with modified Mayer's hematoxylin (37° C.; 4 minutes) and then incubated with Bluing Reagent (37° C.; 4 minutes). They were then dehydrated through a graded ethanol series, cleared with xylene, and manually cover-slipped.
(b) QMP amplified DAB (FIGS. 22(B)-22(D)). The tissue was deparaffinized and retrieved as described in the general procedures. Rabbit-anti-Ki-67 antibody incubation (37° C., 16 minutes) and washing were followed by secondary antibody incubation with a goat polyclonal anti-rabbit antibody conjugated to AP (37° C.; 12 minutes). After incubating with the AP conjugate the slides were washed with Special Stains wash. Monofluoro QMP-biotin (400 nM) (FIG. 22(B)) or acetate QMP-biotin (100 μM) (FIG. 22(C)) or methoxy QMP-biotin (100 μM) (FIG. 22(D)) was dissolved in 100 mM CHES, pH 10.0, 0.05% Brij-35 to a final concentration of 100 nM. QMP turnover was achieved by adding 100 μL of AP Enhancer followed by 100 μL of biotin labeled QMP and incubating at 37° C. for 16 minutes. The deposited biotin was subsequently bound by a streptavidin-HRP conjugate (37° C.; 8 minutes), and visualized via a brown precipitate produced by HRP upon the addition of hydrogen peroxide and DAB (37° C.; 8 minutes). The DAB was toned by the addition of copper sulfate (37° C.; 4 minutes). The stained tissue sections were counterstained with modified Mayer's hematoxylin (37° C.; 4 minutes) and then incubated with Bluing Reagent (37° C.; 4 minutes). They were then dehydrated through a graded ethanol series, cleared with xylene, and manually cover-slipped.

- QMP remaining ([1]; 0.0 days): 100%
- QMP remaining ([1]; 1.0 days): 100%
- QMP remaining ([1]; 4.0 days): 100%
- QMP remaining ([1]; 8.0 days): 100%
- QMP remaining ([1]; 10.0 days): 100%
- QMP remaining ([1]; 14.0 days): 100%
- QMP remaining ([1]; 17.0 days): 100%
- QMP remaining ([1]; 25.0 days): 97.8%
- QMP remaining ([1]; 36.0 days): 96.7%
SMILES: CN(C)c1ccc(N=Nc2ccc(S(=O)(=O)NCCOCCOCCOCCOCCOCCOCCOCCOCCC(=O)NCCCCCCNC(=O)C(F)c3ccccc3OP(=O)(O)O)cc2)cc1 (centres unmarked) [28(C)]

- QMP remaining ([1]; 0.0 days): 99.9%
- QMP remaining ([1]; 1.0 days): 99.8%
- QMP remaining ([1]; 4.0 days): 95.4%
- QMP remaining ([1]; 8.0 days): 95.6%
- QMP remaining ([1]; 10.0 days): 95.7%
- QMP remaining ([1]; 14.0 days): 95.1%
- QMP remaining ([1]; 17.0 days): 95.8%
- QMP remaining ([1]; 25.0 days): 95.5%
- QMP remaining ([1]; 36.0 days): 94%
SMILES: CN1/C(=C/C=C/C=C/C2=[N+](CCCCCC(=O)NCCCCCCNC(=O)C(F)c3ccccc3OP(=O)(O)O)c3ccccc3C2(C)C)C(C)(C)c2ccccc21.[Cl-] (centres unmarked) [28(D)]

SMILES: O=C(CCCCC1SCC2NC(=O)NC21)NCCc1ccc(OP(=O)(O)O)c(CF)c1 (centres unmarked) [Compound 14, 2-(fluoromethyl)-4-(2-(5-(2-oxohexahydro-1H-thieno[3,4-d]imidazol-4-yl)pentanamido)ethyl)phenyl dihydrogen phosphate]
- signal resolution [2]: well resolved signals

SMILES: O=C(CCCCC1SCC2NC(=O)NC21)NCCCCCC(=O)Nc1ccc(OP(=O)(O)O)c(C(F)F)c1 (centres unmarked) [Compound 58]
- diffusion at the upper end of the pH range ([3]; Tris buffer, pH 7-12): still too great to be of clinical use for IHC
- on-slide concentration at which significant amplification of signal was observed compared to the DAB control ([3]; Tris buffer, pH=8.5): greater than 20 μM
- diffusion of signal, off-target staining ([3]; Tris buffer, pH=8.5, 1-20 μM, all cases): increased diffusion of signal
- concentration required to give the desired level of amplification ([3]; pH 8.5 in Tris buffer): 20 µM

SMILES: O=C(CCCCC1SCC2NC(=O)NC21)NCCCCCC(=O)Nc1ccc(OP(=O)(O)O)c(C[N+]23CCN(CC2)CC3)c1 (centres unmarked) [DABCO QMP-biotin, 1-(5-(6-(5-(2-oxohexahydro-1H-thieno[3,4-d]imidazol-4-yl)pentanamido)hexanamido)-2-(phosphonooxy)benzyl)-1,4-diazabicyclo[2.2.2]octan-1-ium]
- staining intensity and signal diffusion compared to the control slide [4]: much lower staining intensity and greatly diffuse signals

SMILES: O=C(CCCCC1SCC2NC(=O)NC21)NCCCCCC(=O)Nc1ccc(OP(=O)(O)O)c(CF)c1 (centres unmarked) [Monofluoro QMP-biotin]
- signal resolution and intensity compared to the control slide [4]: well resolved signal with greater or equal intensity to the control slide

SMILES: CC(=O)OCc1cc(NC(=O)CCCCCNC(=O)CCCCC2SCC3NC(=O)NC32)ccc1OP(=O)(O)O (centres unmarked) [acetate QMP-biotin, 5-(6-(5-(2-oxohexahydro-1H-thieno[3,4-d]imidazol-4-yl)pentanamido)hexanamido)-2-(phosphonooxy)benzyl acetate]
- signal resolution and intensity compared to the control slide [4]: weak, very diffuse signal

SMILES: COCc1cc(NC(=O)CCCCCNC(=O)CCCCC2SCC3NC(=O)NC32)ccc1OP(=O)(O)O (centres unmarked) [methoxy QMP-biotin, 2-(methoxymethyl)-4-(6-(5-(2-oxohexahydro-1H-thieno[3,4-d]imidazol-4-yl)pentanamido)hexanamido)phenyl dihydrogen phosphate]
- signal resolution and intensity compared to the control slide [4]: well resolved signal but with low intensity

SMILES: O=C(CCCCC1SCC2NC(=O)NC21)NCCCCCC(=O)Nc1ccc(OP(=O)(O)O)c(C[n+]2ccccc2)c1 (centres unmarked) [pyridine QMP-biotin, 1-(5-(6-(5-(2-oxohexahydro-1H-thieno[3,4-d]imidazol-4-yl)pentanamido)hexanamido)-2-(phosphonooxy)benzyl)pyridin-1-ium]
- staining intensity and signal diffusion compared to the control slide [4]: much lower staining intensity and greatly diffuse signals

SMILES: CC[N+](CC)(CC)Cc1cc(NC(=O)CCCCCNC(=O)CCCCC2SCC3NC(=O)NC32)ccc1OP(=O)(O)O (centres unmarked) [triethylamine QMP-biotin, N,N-diethyl-N-(5-(6-(5-(2-oxohexahydro-1H-thieno[3,4-d]imidazol-4-yl)pentanamido)hexanamido)-2-(phosphonooxy)benzyl)ethanaminium]
- staining intensity and signal diffusion compared to the control slide [4]: much lower staining intensity and greatly diffuse signals
